# Data: patent publication US10730874B2 (Shire Human Genetic Therapies, Inc., priority 2018, dated 2020)
# Biological target: human activated kallikrein enzyme (plasma kallikrein) (Homo sapiens (Human), UniProt P03952)
# Experiment: Inhibition of human activated plasma kallikrein, fluorogenic peptide substrate assay, 500 pM enzyme format
# Assay type: biochemical
# Conditions: 500 pM activated kallikrein enzyme, 300 uM Pro-Phe-Arg-7-amido-4-methylcoumarin substrate, 30 min preincubation, 10 min at RT; read-out: Primary Dose Response Assay: Average EC50
# Experimental: Example compounds were evaluated for inhibition of the human activated kallikrein enzyme in two formats of an assay employing a fluorogenic peptide substrate. In one assay format, the concentrations of reagents were as follows: 20 mM Tris pH 7.5, 1 mM EDTA, 150 mM sodium chloride, 0.1% PEG-400, 0.1% Triton X-100, 500 pM activated kallikrein enzyme, 300 uM Pro-Phe-Arg-7-amido-4-methylcoumarin substrate. Prior to reaction initiation with substrate, enzyme and inhibitors were preincubated for 30 min at RT. After initiation with substrate, reactions were incubated for 10 min at RT and fluorescence emission at 460 nm from 380 nm excitation measured with a microplate reader. In another assay format, the concentrations of reagents were as follows: 20 mM Tris pH 7.5, 1 mM EDTA, 150 mM sodium chloride, 0.1% PEG-400, 0.1% Triton X-100, 5 pM activated kallikrein enzyme, 300 uM Pro-Phe-Arg-7-amido-4-methylcoumarin substrate. Prior to reaction initiation with substrate, enzyme and inhibitors were preincubated for 30 min at RT. After initiation with substrate, reactions were incubated for 18 h at RT and fluorescence emission at 460 nm from 380 nm excitation measured with a microplate reader.
# Chain of human activated kallikrein enzyme (plasma kallikrein) (P03952 391-638): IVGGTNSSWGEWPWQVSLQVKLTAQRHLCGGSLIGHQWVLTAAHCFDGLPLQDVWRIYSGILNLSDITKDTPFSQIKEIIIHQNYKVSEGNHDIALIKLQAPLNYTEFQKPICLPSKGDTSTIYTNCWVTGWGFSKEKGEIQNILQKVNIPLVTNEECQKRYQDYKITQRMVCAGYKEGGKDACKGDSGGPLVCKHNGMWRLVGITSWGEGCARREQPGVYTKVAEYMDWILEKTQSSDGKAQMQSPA
# Chain of human activated kallikrein enzyme (plasma kallikrein) (P03952 20-390 partner): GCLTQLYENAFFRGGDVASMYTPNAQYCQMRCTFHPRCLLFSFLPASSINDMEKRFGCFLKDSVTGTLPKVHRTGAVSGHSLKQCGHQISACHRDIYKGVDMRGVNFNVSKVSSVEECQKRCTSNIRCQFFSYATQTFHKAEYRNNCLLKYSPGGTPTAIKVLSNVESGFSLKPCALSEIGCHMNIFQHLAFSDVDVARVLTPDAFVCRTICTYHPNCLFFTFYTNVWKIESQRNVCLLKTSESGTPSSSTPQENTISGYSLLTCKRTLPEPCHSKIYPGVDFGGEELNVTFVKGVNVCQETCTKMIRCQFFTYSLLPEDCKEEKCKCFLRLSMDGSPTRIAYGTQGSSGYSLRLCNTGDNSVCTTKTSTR
row,Structure (SMILES),EC50 [nM]
1,"O=C(NCc1ncn2ccc(Cl)c(F)c12)c1cn(Cc2cn3cc(C4CC4)cc(N4CCOC(C(=O)O)C4)c3n2)nn1 (stereo not drawn) [Example I-264, 4-(2-((4-(((7-chloro-8-fluoroimidazo[1,5-a]pyridin-1-yl)methyl)carbamoyl)-1H-1,2,3-triazol-1-yl)methyl)-6-cyclopropylimidazo[1,2-a]pyridin-8-yl)morpholine-2-carboxylic acid]",< 1
2,"O=C(NCc1ncn2ccc(Br)cc12)c1cn(Cc2cn3cc(C4CC4)ccc3n2)nn1 [Example I-303, N-((7-bromoimidazo[1,5-a]pyridin-1-yl)methyl)-1-((6-cyclopropylimidazo[1,2-a]pyridin-2-yl)methyl)-1H-1,2,3-triazole-4-carboxamide]",< 1
3,"O=C(NCc1ncn2ccc(Cl)cc12)c1cnn(Cc2cn3cccc(C4(C(=O)O)CC4)c3n2)c1 [Example I-116, 1-(2-((4-(((7-chloroimidazo[1,5-a]pyridin-1-yl)methyl)carbamoyl)-1H-pyrazol-1-yl)methyl)imidazo[1,2-a]pyridin-8-yl)cyclopropane-1-carboxylic acid]",1 to 10
4,"CC(C)(C#N)Cc1cc(C2CC2)cn2cc(Cn3cc(C(=O)NCc4ncn5ccc(Cl)c(F)c45)cn3)nc12 [Example I-237, N-((7-chloro-8-fluoroimidazo[1,5-a]pyridin-1-yl)methyl)-1-((8-(2-cyano-2-methylpropyl)-6-cyclopropylimidazo[1,2-a]pyridin-2-yl)methyl)-1H-pyrazole-4-carboxamide]",< 1
5,"O=C(NCc1ncn2ccc(Cl)cc12)c1cnn(Cc2cn3ccccc3n2)c1 [Example I-69, N-((7-chloroimidazo[1,5-a]pyridin-1-yl)methyl)-1-(imidazo[1,2-a]pyridin-2-ylmethyl)-1H-pyrazole-4-carboxamide]",100 to 2000
6,"O=C(NCc1ncn2ccc(Cl)cc12)c1cn(Cc2cn3c(F)c(C4CC4)ccc3n2)nn1 [Example I-144, N-((7-chloroimidazo[1,5-a]pyridin-1-yl)methyl)-1-((6-cyclopropyl-5-fluoroimidazo[1,2-a]pyridin-2-yl)methyl)-1H-1,2,3-triazole-4-carboxamide]",< 1
7,"O=C(NCc1nc(C(F)F)n2ccc(Br)cc12)c1cnn(Cc2cn3cc(C4CC4)ccc3n2)c1 [Example I-83, N-((7-bromo-3-(difluoromethyl)imidazo[1,5-a]pyridin-1-yl)methyl)-1-((6-cyclopropylimidazo[1,2-a]pyridin-2-yl)methyl)-1H-pyrazole-4-carboxamide]",10 to 100
8,"O=C(NCc1ncn2ccc(Br)c(F)c12)c1cn(Cc2cn3cc(C4CC4)cc(F)c3n2)nn1 [Example I-200, N-((7-bromo-8-fluoroimidazo[1,5-a]pyridin-1-yl)methyl)-1-((6-cyclopropyl-8-fluoroimidazo[1,2-a]pyridin-2-yl)methyl)-1H-1,2,3-triazole-4-carboxamide]",< 1
9,"O=C(NCc1ncn2ccc(Cl)cc12)c1cnn(Cc2cn3c(F)c(C4CC4)ccc3n2)c1 [Example I-59, N-((7-chloroimidazo[1,5-a]pyridin-1-yl)methyl)-1-((6-cyclopropyl-5-fluoroimidazo[1,2-a]pyridin-2-yl)methyl)-1H-pyrazole-4-carboxamide]",< 1
10,"CCOC(=O)C1CC1c1cc(C2CC2)cn2cc(Cn3cc(C(=O)NCc4ncn5ccc(Cl)cc45)cn3)nc12 (stereo not drawn) [Example I-127, ethyl 2-(2-((4-(((7-chloroimidazo[1,5-a]pyridin-1-yl)methyl)carbamoyl)-1H-pyrazol-1-yl)methyl)-6-cyclopropylimidazo[1,2-a]pyridin-8-yl)cyclopropane-1-carboxylate]",< 1
11,"CC(C)(O)c1cc(C2CC2)cn2cc(Cn3cc(C(=O)NCc4ncn5ccc(Cl)cc45)cn3)nc12 [Example I-104b, N-((7-chloroimidazo[1,5-a]pyridin-1-yl)methyl)-1-((6-cyclopropyl-8-(2-hydroxypropan-2-yl)imidazo[1,2-a]pyridin-2-yl)methyl)-1H-pyrazole-4-carboxamide]",< 1

# Other lines, results leading:
row,EC50 [nM],Structure (SMILES)
1,< 1,"O=C(NCc1ncn2ccc(Cl)c(F)c12)c1cn(Cc2cn3cc(C4CC4)cc(-n4cnnc4)c3n2)nn1 [Example I-180, N-((7-chloro-8-fluoroimidazo[1,5-a]pyridin-1-yl)methyl)-1-((6-cyclopropyl-8-(4H-1,2,4-triazol-4-yl)imidazo[1,2-a]pyridin-2-yl)methyl)-1H-1,2,3-triazole-4-carboxamide]"
2,10 to 100,Cc1ccc2nc(Cn3cc(C(=O)NCc4ncn5ccc(Cl)cc45)cn3)cn2c1C [Example I-130]
3,< 1,"O=C(NCc1ncn2ccc(Cl)c(F)c12)c1cn(Cc2cn3cc(C4CC4)cc(CC4COC4)c3n2)nn1 [Example I-186, N-((7-chloro-8-fluoroimidazo[1,5-a]pyridin-1-yl)methyl)-1-((6-cyclopropyl-8-(oxetan-3-ylmethyl)imidazo[1,2-a]pyridin-2-yl)methyl)-1H-1,2,3-triazole-4-carboxamide]"
4,10 to 100,"O=C(NCc1ncn2ccc(Cl)c(F)c12)c1cnn(Cc2cn3ccccc3n2)c1 [Example I-284, N-((7-chloro-8-fluoroimidazo[1,5-a]pyridin-1-yl)methyl)-1-(imidazo[1,2-a]pyridin-2-ylmethyl)-1H-pyrazole-4-carboxamide]"
5,100 to 2000,"Cc1ccc2nc(Cn3cc(C(=O)NCc4ncn5ccc(Cl)c(C)c45)cn3)cn2c1 [Example I-35, N-((7-chloro-8-methylimidazo[1,5-a]pyridin-1-yl)methyl)-1-((6-methylimidazo[1,2-a]pyridin-2-yl)methyl)-1H-pyrazole-4-carboxamide]"
6,1 to 10,"Cc1ccn2cnc(CNC(=O)c3cnn(Cc4cn5cc(C6CC6)ccc5n4)c3)c2c1 [Example I-4, 1-((6-cyclopropylimidazo[1,2-a]pyridin-2-yl)methyl)-N-((7-methylimidazo[1,5-a]pyridin-1-yl)methyl)-1H-pyrazole-4-carboxamide]"
7,< 1,"CC(C)(Cc1cc(C2CC2)cn2cc(Cn3cc(C(=O)NCc4ncn5ccc(Cl)c(F)c45)cn3)nc12)c1nn[nH]n1 [Example I-238, N-((7-chloro-8-fluoroimidazo[1,5-a]pyridin-1-yl)methyl)-1-((6-cyclopropyl-8-(2-methyl-2-(2H-tetrazol-5-yl)propyl)imidazo[1,2-a]pyridin-2-yl)methyl)-1H-pyrazole-4-carboxamide]"
8,10 to 100,"O=C(NCc1ncn2ccc(Cl)c(F)c12)c1cn(Cc2cn3ccccc3n2)cn1 [Example I-297, N-((7-chloro-8-fluoroimidazo[1,5-a]pyridin-1-yl)methyl)-1-(imidazo[1,2-a]pyridin-2-ylmethyl)-1H-imidazole-4-carboxamide]"
9,< 1,"CCOC(=O)c1nnc(Cc2cc(C3CC3)cn3cc(Cn4cc(C(=O)NCc5ncn6ccc(Cl)c(F)c56)nn4)nc23)o1 [Example I-210a, ethyl 5-((2-((4-(((7-chloro-8-fluoroimidazo[1,5-a]pyridin-1-yl)methyl)carbamoyl)-1H-1,2,3-triazol-1-yl)methyl)-6-cyclopropylimidazo[1,2-a]pyridin-8-yl)methyl)-1,3,4-oxadiazole-2-carboxylate]"

# Same assay, conditions: comparative compounds (Table II); assay format with 500 pM (500 μM in the source) activated kallikrein; read-out: Primary Dose Response Assay: Average EC50
row,Structure (SMILES),EC50 [nM]
1,Cc1ccc2nc(Cn3cc(C(=O)NCc4cnc5ccc(Cl)cn45)cn3)cn2c1 [reference compound],100 to 2000
